According to patent US20260174875A1 (Novo Nordisk A/S, priority 2023, published 2026):
Numbered stars: 1 amine (or outer) side, 2 acyl side, 3 side chain; on linkers, the order of the positions; unused ones are H or OH. Square brackets hold non-standard residues; d marks the D form. Side chains are listed from the residue outwards. * marks the point of attachment. C20 diacid = O=C(O)CCCCCCCCCCCCCCCCCCC(=O)*; C18 diacid = O=C(O)CCCCCCCCCCCCCCCCC(=O)*; γGlu = O=C(O)[C@H](CCC(=O)[*:2])N[*:1]; AEEA = NCCOCCOCC(=O)O; Aib = CC(C)(N)C(=O)O

Target: T1, human GLP-1 receptor (hGLP-1R) (Homo sapiens, UniProt P43220)
T1 construct: expressed in transfected cells
T1 sequence (P43220 24-463): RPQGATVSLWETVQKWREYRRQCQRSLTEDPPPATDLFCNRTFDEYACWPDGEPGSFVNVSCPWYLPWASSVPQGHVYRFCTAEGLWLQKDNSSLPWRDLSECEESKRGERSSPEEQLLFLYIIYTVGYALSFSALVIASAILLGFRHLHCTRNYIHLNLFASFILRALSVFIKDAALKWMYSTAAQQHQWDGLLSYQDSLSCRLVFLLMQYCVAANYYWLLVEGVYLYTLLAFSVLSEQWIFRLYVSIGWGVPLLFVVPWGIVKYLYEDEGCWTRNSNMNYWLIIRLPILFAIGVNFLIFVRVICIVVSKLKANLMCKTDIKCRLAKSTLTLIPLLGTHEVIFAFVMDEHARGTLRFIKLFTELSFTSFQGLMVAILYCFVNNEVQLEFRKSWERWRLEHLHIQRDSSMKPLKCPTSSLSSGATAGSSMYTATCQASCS
Experiment: GLP-1 receptor assay, method A (CRE-luciferase reporter, BHK cells)
Type: cell-based
Conditions: hGLP-1R Potency, 1% HSA, EC50, method A, in the presence of 1% HSA
Description: (§1) To assess how the activation of the receptors is potentially influenced by the presence of human serum albumin (HSA), the in vitro assays were performed in the absence of HSA and presence of 1% (w/v) HSA.
Cells at approximately 80-90% confluence were washed once in PBS (Gibco 14190-094) and loosened from the cell flasks with Versene (Gibco, 15040-033). […] Cells were aliquoted and stored at −180° C. until use.
(§2) The assay buffer consisted of DMEM without phenol red (Gibco, 11880-028) supplemented with 1× GlutaMAX (Gibco, 35050-038), 10 mM HEPES (Gibco, 15630-056), 1% (w/v) ovalbumin (Sigma, A5503) and 0.1% (v/v) Pluronic F-68 (Gibco, 24040-032) either with HSA or without HSA (Sigma, A9511).
Frozen stocks of hGLP-1R BHK CRE-Luc cells were thawed in a 37° C. water bath, washed once in PBS (Gibco 14190-094) and diluted to 1.5×10^6 (1.5E+6) cells/mL in assay buffer with or without 2% (w/v) HSA (Sigma, A9511). […] The assay plates were incubated for 3 hours at 37° C. in 5% CO2, left at room temperature for 5 minutes after which 100 μL steadylite Plus™ (PerkinElmer/Revvity, 6066759) was added to each well. Plates were sealed and incubated at room temperature with gentle shaking for 30 minutes while protected from light. Luminescence was detected on a luminescence plate reader e.g., a Synergy 2 (BioTek).

Substance	EC50
Y[Aib]EGTFTSDYSILLEEQAAREFIEWLLAGGPSK([AEEA-AEEA-γGlu-C18 diacid])GGQEPGQEPGEASHLSTAQTQRLSAELHELATLPRTETGSGSP-NH2 [Compound 39]	1930 pM
Y[Aib]EGTFTSDYSILLEEQAAREFIEWLLAGGPSRGAPPPSGGGEASHLSTQTQGRLSAELHK([AEEA-AEEA-γGlu-C18 diacid])LATLPRTETGSGSP-NH2 [Compound 72]	41.7 pM
Y[Aib]EGTFTSDYSILLEEQAAREFIEWLLAGGPSRGEASELSTAALGRLSAELHK([AEEA-AEEA-γGlu-C18 diacid])LATLPRTETGSGSP-NH2 [Compound 67]	105 pM
Y[Aib]EGTFTSDYSILLEEQAAREFIEWLLAGGPSRGEASHLSTAQTQRLSAELHK([AEEA-AEEA-γGlu-C20 diacid])LATLPRTETGSGSP-NH2 [Compound 94]	130 pM

Same assay, conditions: method A, absence of HSA; read-out: hGLP-1R Potency, no HSA, EC50

Substance	EC50
Y[Aib]EGTFTSDYSILLEEQAAREFIEWLLAGGPSK([AEEA-AEEA-γGlu-C18 diacid])GGQEPGQEPGEASHLSTAQTQRLSAELHELATLPRTETGSGSP-NH2 [Compound 39]	23.7 pM
Y[Aib]EGTFTSDYSILLEEQAAREFIEWLLAGGPSRGAPPPSGGGEASHLSTQTQGRLSAELHK([AEEA-AEEA-γGlu-C18 diacid])LATLPRTETGSGSP-NH2 [Compound 72]	13.1 pM
Y[Aib]EGTFTSDYSILLEEQAAREFIEWLLAGGPSRGEASELSTAALGRLSAELHK([AEEA-AEEA-γGlu-C18 diacid])LATLPRTETGSGSP-NH2 [Compound 67]	15.4 pM
Y[Aib]EGTFTSDYSILLEEQAAREFIEWLLAGGPSRGEASHLSTAQTQRLSAELHK([AEEA-AEEA-γGlu-C20 diacid])LATLPRTETGSGSP-NH2 [Compound 94]	16.1 pM

Target: T2, human GIP receptor (hGIPR) (Homo sapiens, UniProt P48546)
T2 construct: expressed in transfected cells
T2 sequence (P48546 22-466): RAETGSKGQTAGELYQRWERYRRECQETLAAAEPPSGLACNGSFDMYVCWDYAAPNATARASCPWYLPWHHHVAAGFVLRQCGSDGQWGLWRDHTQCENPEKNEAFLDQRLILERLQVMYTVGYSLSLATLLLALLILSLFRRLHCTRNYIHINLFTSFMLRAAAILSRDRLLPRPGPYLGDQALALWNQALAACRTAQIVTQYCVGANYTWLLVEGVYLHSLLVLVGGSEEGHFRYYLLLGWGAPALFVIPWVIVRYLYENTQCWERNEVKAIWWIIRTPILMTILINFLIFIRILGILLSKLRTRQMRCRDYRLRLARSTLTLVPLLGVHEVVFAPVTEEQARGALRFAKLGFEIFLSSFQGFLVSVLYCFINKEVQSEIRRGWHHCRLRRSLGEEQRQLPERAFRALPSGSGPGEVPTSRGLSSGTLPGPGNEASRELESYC
Experiment: GIP receptor assay, method A (CRE-luciferase reporter, BHK cells)
Type: cell-based
Conditions: hGIPR Potency, 1% HSA, EC50, method A, in the presence of 1% HSA
Description: To assess how the activation of the receptors is potentially influenced by the presence of human serum albumin (HSA), the in vitro assays were performed in the absence of HSA and presence of 1% (w/v) HSA. Unless stated otherwise the reference to the “GIP receptor assay as described in Example 4” throughout the specification shall refer to the described herein assay procedure method A (hGIPR assay) in the absence of HSA.
Activation of the human GIP receptor leads to increased intra-cellular concentrations of cyclic AMP (cAMP) and the consequent transcription activation from promoters containing multiple copies of the cAMP response element (CRE). It is thus possible to measure GIP receptor activity using a CRE-luciferase reporter gene introduced into Baby Hamster Kidney (BHK) cells co-expressing the human GIP receptor.
Cells at about 80-90% confluency were washed once with PBS (Gibco 14190-094) and detached from the cell flasks with Versene (Gibco, 15040-066). After centrifugation, the cells were counted, resuspended and diluted to approximately 1.5-3.0×10^6 (1.5E+6 to 3.0E+6) cells/mL in Recovery Cell Culture Freezing Medium (Gibco, 12648-010) and stored at −180° C. in suitable aliquots until use.
as §2
On the day before the assay hGIPR BHK Cre-Luc cells were thawed and plated out in 96 well Culture Plates (PerkinElmer/Revvity, 6005680) at 5.0×10^3 (5.0E+3) cells/well in growth medium as described above. The plates were then incubated for 21-23 hours at 37° C. with 5% CO2. On the day of the assay GLP-1-/GIP-/amylin-receptor tri-agonists or reference compounds were diluted in assay buffer using a 7-point, 10-fold titration plus a blank (absence of compound). Each compound was diluted and tested in duplicates in each experiment. In the plates containing the cells the growth medium was removed, and cells were washed twice with 100 μL PBS (Gibco 14190-094). 50 μL of the test compound dilutions were added to the plates containing cells preceded by 50 μL assay buffer with or without 2% (w/v) HSA (Sigma, A9511). The cell plates were incubated for 3 hours in a 5% CO2 incubator at 37° C. The plates were then transferred to room temperature followed by addition of 100 μL steadylite Plus™ (PerkinElmer/Revvity, 6066759). The plates were sealed and shaken for 30 minutes at room temperature while protected from light. Finally, luminescence (as an indicator of receptor activation) was measured on a Mithras reader (Berthold Technologies, DE). The EC50-values [pM] were calculated by non-linear curve fitting applying a four-parameter logistic model (Hill slope=“shared value for all datasets”) using GraphPad Prism (GraphPad Software, Boston, MA, USA).

Substance	EC50
Y[Aib]EGTFTSDYSILLEEQAAREFIEWLLAGGPSK([AEEA-AEEA-γGlu-C18 diacid])GGQEPGQEPGEASHLSTAQTQRLSAELHELATLPRTETGSGSP-NH2 [Compound 39]	352 pM
Y[Aib]EGTFTSDYSILLEEQAAREFIEWLLAGGPSRGAPPPSGGGEASHLSTQTQGRLSAELHK([AEEA-AEEA-γGlu-C18 diacid])LATLPRTETGSGSP-NH2 [Compound 72]	9.79 pM
Y[Aib]EGTFTSDYSILLEEQAAREFIEWLLAGGPSRGEASELSTAALGRLSAELHK([AEEA-AEEA-γGlu-C18 diacid])LATLPRTETGSGSP-NH2 [Compound 67]	37 pM
Y[Aib]EGTFTSDYSILLEEQAAREFIEWLLAGGPSRGEASHLSTAQTQRLSAELHK([AEEA-AEEA-γGlu-C20 diacid])LATLPRTETGSGSP-NH2 [Compound 94]	29.5 pM

Same assay, conditions: method A, absence of HSA; read-out: hGIPR Potency, no HSA, EC50

Substance	EC50
Y[Aib]EGTFTSDYSILLEEQAAREFIEWLLAGGPSK([AEEA-AEEA-γGlu-C18 diacid])GGQEPGQEPGEASHLSTAQTQRLSAELHELATLPRTETGSGSP-NH2 [Compound 39]	1.62 pM
Y[Aib]EGTFTSDYSILLEEQAAREFIEWLLAGGPSRGAPPPSGGGEASHLSTQTQGRLSAELHK([AEEA-AEEA-γGlu-C18 diacid])LATLPRTETGSGSP-NH2 [Compound 72]	2.12 pM
Y[Aib]EGTFTSDYSILLEEQAAREFIEWLLAGGPSRGEASELSTAALGRLSAELHK([AEEA-AEEA-γGlu-C18 diacid])LATLPRTETGSGSP-NH2 [Compound 67]	4.28 pM
Y[Aib]EGTFTSDYSILLEEQAAREFIEWLLAGGPSRGEASHLSTAQTQRLSAELHK([AEEA-AEEA-γGlu-C20 diacid])LATLPRTETGSGSP-NH2 [Compound 94]	2.9 pM

Target: T3, human amylin receptor (hAMYR3) (Homo sapiens, UniProt O60896+P30988)
T3 construct: host or cells: BHK cells (Hollex-1 line expressing hCTR(a) and CRE-Luc), further transfected with human RAMP3
T3 sequence (P30988 25-474): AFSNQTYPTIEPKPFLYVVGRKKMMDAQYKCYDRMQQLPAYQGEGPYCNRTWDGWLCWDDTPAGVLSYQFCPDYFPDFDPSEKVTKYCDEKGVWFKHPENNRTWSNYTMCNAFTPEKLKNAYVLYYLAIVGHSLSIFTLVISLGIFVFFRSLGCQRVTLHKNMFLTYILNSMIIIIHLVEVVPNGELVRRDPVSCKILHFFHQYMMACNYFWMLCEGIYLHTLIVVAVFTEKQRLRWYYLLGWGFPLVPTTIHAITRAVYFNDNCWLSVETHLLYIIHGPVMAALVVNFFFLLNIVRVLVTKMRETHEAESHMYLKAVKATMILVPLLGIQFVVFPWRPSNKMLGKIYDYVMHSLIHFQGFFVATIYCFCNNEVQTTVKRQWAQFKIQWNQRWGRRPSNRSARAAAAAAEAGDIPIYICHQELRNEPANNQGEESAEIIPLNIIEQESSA
T3 sequence (O60896 24-148): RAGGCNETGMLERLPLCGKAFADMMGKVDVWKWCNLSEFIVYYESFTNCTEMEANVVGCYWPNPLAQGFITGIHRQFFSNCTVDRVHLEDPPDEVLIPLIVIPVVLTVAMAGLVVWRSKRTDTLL
Experiment: Amylin receptor assay, method A (CRE-luciferase reporter, BHK cells)
Type: cell-based
Conditions: hAMYR3 Potency, 1% HSA, EC50, method A, in the presence of 1% HSA
Description: as §1
It is thus possible to measure hAMYR3 activity using a CRE-luciferase reporter gene introduced into Baby Hamster Kidney (BHK) cells co-expressing the hAMYR3.
The cell line was further transfected with human receptor modifying protein 3 (RAMP3) using standard methods.
After centrifugation, the cell pellet was resuspended and diluted to approximately 2.5-4.0×10^6 (2.5E+6 to 4.0E+6) cells/mL in Recovery™ Cell Culture Freezing Medium (Gibco, 12648-010). Cells were aliquoted and stored at −180° C. until use.
as §2, with “15630-056) and” for “15630-056),”, “either with or without” for “and”, “24040-032) and” for “24040-032)”, “with” for “with HSA”
The plate was incubated over night at 37° C. in 5% CO2. […] Luminescence was detected on a luminescence plate reader e.g., a Synergy 2 (BioTek).

Substance	EC50
Y[Aib]EGTFTSDYSILLEEQAAREFIEWLLAGGPSK([AEEA-AEEA-γGlu-C18 diacid])GGQEPGQEPGEASHLSTAQTQRLSAELHELATLPRTETGSGSP-NH2 [Compound 39]	140 pM
Y[Aib]EGTFTSDYSILLEEQAAREFIEWLLAGGPSRGAPPPSGGGEASHLSTQTQGRLSAELHK([AEEA-AEEA-γGlu-C18 diacid])LATLPRTETGSGSP-NH2 [Compound 72]	589 pM
Y[Aib]EGTFTSDYSILLEEQAAREFIEWLLAGGPSRGEASELSTAALGRLSAELHK([AEEA-AEEA-γGlu-C18 diacid])LATLPRTETGSGSP-NH2 [Compound 67]	190 pM
Y[Aib]EGTFTSDYSILLEEQAAREFIEWLLAGGPSRGEASHLSTAQTQRLSAELHK([AEEA-AEEA-γGlu-C20 diacid])LATLPRTETGSGSP-NH2 [Compound 94]	377 pM

Same assay, conditions: method A, absence of HSA; read-out: hAMYR3 Potency, no HSA, EC50

Substance	EC50
Y[Aib]EGTFTSDYSILLEEQAAREFIEWLLAGGPSK([AEEA-AEEA-γGlu-C18 diacid])GGQEPGQEPGEASHLSTAQTQRLSAELHELATLPRTETGSGSP-NH2 [Compound 39]	5.75 pM
Y[Aib]EGTFTSDYSILLEEQAAREFIEWLLAGGPSRGAPPPSGGGEASHLSTQTQGRLSAELHK([AEEA-AEEA-γGlu-C18 diacid])LATLPRTETGSGSP-NH2 [Compound 72]	6.57 pM
Y[Aib]EGTFTSDYSILLEEQAAREFIEWLLAGGPSRGEASELSTAALGRLSAELHK([AEEA-AEEA-γGlu-C18 diacid])LATLPRTETGSGSP-NH2 [Compound 67]	3.66 pM
Y[Aib]EGTFTSDYSILLEEQAAREFIEWLLAGGPSRGEASHLSTAQTQRLSAELHK([AEEA-AEEA-γGlu-C20 diacid])LATLPRTETGSGSP-NH2 [Compound 94]	3.91 pM
